Measurements reported in patent US20170157102A1, “USE OF PERHEXILINE” (CONSIGLIO NAZIONALE DELLE RICERCHE, priority 2014, published 2017).
Like-named read-outs stand apart in the source and are kept apart here.

Legend:
[1] = test system: S. mansoni adult worms; assay: microbe, parasite or virus in culture; type: cell-based, Schistosoma mansoni
Procedure: (§1) FIG. 1. Adult worms (8 weeks old, S. mansoni) in vitro survival following overnight treatment with 10 μM PHX, 10 μM Gambogic Acid, 10 μM Praziquantel (PZQ) or DMSO (vehicle). Parasites death was assessed by optical examination each day using the following criteria: reduction of motility, tegumental damages and darker appearance. Data shown are the means of results of at least three experiments.
(§2) Seven-eight male worms or 4-5 worm pairs were recovered under aseptic conditions from infected mice by perfusion of mesenteric veins at 28 days (juvenile) or 56-days post infection (adult pairs) or 2-4 months post-infection (adult males). After washing, the worms were transferred into a 35 mm plates containing 3 mL of DMEM complete worms media and incubated at 37° C. in a humid atmosphere containing 5% CO2 with drugs overnight. Next, the worms were washed 3 times with drug-free medium and were incubated for 5 days at 37° C./5% CO2 and monitored daily under a stereo microscope for mobility, tegumental damage, viability and egg output (worm pairs). The experiment was repeated at least three times.
Male adult worms (7-8 worms/sample) obtained from infected mice were cultured at 37° C., 5% CO2 in DMEM complete medium (10% FBS) in presence of different concentrations of PHX (3-10 μM) and for variable time (12h to 5 days). For all experiments Gambogic Acid (1-10 μM) and PZQ (1-10 μM) were used as positive controls while DMSO was used as negative control. […] Parasites death was assessed by optical examination each day using the following criteria: reduction of motility, tegumental damages and darker appearance.

[2] = test system: S. mansoni adult worm pairs; assay: Egg production of adult worm pairs in vitro; type: cell-based, Schistosoma mansoni; settings: 5 μM overnight, vs DMSO control
Procedure: as §2
In order to test the effect of PHX on egg production, adult worm pairs were treated overnight using the sub lethal dose of 5 μM. Total number of eggs laid by female parasites was determined 3 and 6 days after the treatment. To do so, the medium containing the eggs was harvested and briefly centrifuged. The pellet containing the eggs was re-suspended in 500 μl of saline solution and the egg number was determined by microscopy analysis.

[3] = test system: S. mansoni; assay: In vivo efficacy in mice infected with S. mansoni (total worm count, hepatic egg burden); settings: two weeks after treatment
Procedure: FIG. 3. Effect of PHX on total worm count (A) and egg burdens (B) in mice infected with S. mansoni. One-way analysis of variance (one-way Anova) was used to compare means of the samples. The p-values are indicated. PZQ (Praziquantel, oral administration, 500 mg/kg), PERHEX LOW (PHX, oral administration, 23 mg/kg), PERHEX HIGH (PHX, oral administration, 70 mg/kg).
Female ICR (CD-1) outbred and C57BL/6, 4-7 weeks old mice (Harlan Laboratories) were housed under controlled conditions [(22±2)° C.; (65±15)% relative humidity; 12/12 h light/dark cycle]. The mice received standard food and water ad libitum. Female ICR (CD-1) outbred mice were infected transcutaneously with approximately 80 (for mixed infection) or 200 (single sex) S. mansoni cercariae for life cycle maintainance and in vitro worm assays. For in vivo experiments, C57BL/6 mice were infected with 140 cercariae and administered with selected compounds.
C57B/L6 inbred female mice (5-6 weeks old) were divided in 4 groups of 7 animals each and treated with DMSO (control), PZQ or two dosages of PHX. All compounds were administered orally (vehicle is 2.5% Cremophor EL) 42 days post infection. The amount of PHX administered (23 mg/kg and 70 mg/kg) was guided by available information of therapeutic dose in use for angina treatment (Ashrafian H., 2007); PZQ was used at the standard dose (500 mg/Kg). Toxicity of compounds (e.g., death and behavioral changes) was assessed daily during and after treatment until the time of euthanasia. At 56 days post infection, mice were euthanized with an intraperitoneal injection of Tiletamina/Zolazepam ([…])+Xylazina (100 mg/kg) and adult worms perfused as described above.
Compound efficacy in vivo, measured using a number of criteria, was compared to that of the anti-schistosomal drug, PZQ. The criteria include the numbers of male and female worms (total worm count) recovered by perfusion and hepatic egg burden (number of eggs in the liver). To recover eggs trapped in liver, whole livers from individual mice were excised, weighed and incubated in a 4% KOH solution over night at 37° C. Eggs were counted under a dissecting microscope as previously described (Cheever, A. W., 1968).
Based on the strong in vitro effects of PHX against larvae, juvenile (4 weeks old) and adult worms, the in vivo efficacy of the drug was tested in mice infected with S. mansoni. Based on the previous cardiovascular studies of the drug (Ashrafian H., 2007), two different concentrations of PHX were used: a low dose (23 mg/Kg) and a high dose (70 mg/Kg). […] Two weeks after the treatment, mice were sacrificed and the total worm count and egg burden (number of eggs in the liver) were determined (FIG. 3). […]

[4] = cited from earlier work
[5] = test system: adult parasites (schistosomes); settings: treatment of adult parasites (Redman et al.); cited from earlier work
[6] = test system: S. mansoni newly transformed schistosomula; assay: CellTiterGlo luminescent viability assay on schistosomula; settings: 24 h; for CC50: values of two independent experiments
Procedure: Cercariae, shed from infected snails, were subsequently converted to schistosomula by mechanical transformation using an optimised version of the protocol of Brink et al., 1977 previously described (Protasio et al. 2013). Briefly, the cercarial suspension (approximately 50.000 cercariae) was placed in a glass 40 ml tube on ice for 60 minutes in order to reduce parasite motility. Tail detachment was obtained by shaking cercariae vigorously for approximately 30 seconds in a vortex mixer before passing these through a 22G syringe needle approximately 10-12 times. Next, the separation of heads/schistosomula and tails was obtained by placing the heads plus tails suspension on 4-5 ml of ice-cold 70% Percoll in tube and centrifugating (600×g) for 10 minutes at 4° C. Finally, the schistomula preparations were washed twice (with DMEM complete media lacking FBS) and microscope examination was used to assess the quantity and quality of purified schistosomula (less than 1% tails). Schistosomula were cultured at 37° C. in 6 wells tissue culture plates containing 3 ml schistosomula complete media in an atmosphere of 5% CO2 for 24 hr before any further experimental manipulations proceeded. Negligible parasite death occurred in this media during the 24 hr culturing period. Following this, schistosomula were aliquoted into flat-bottom 384-well black-sided for compound assays.
Compounds are stored as solution of 100% DMSO at −20 ° C. under inert atmosphere. Intermediate storage microplates, in the 384 well/plate format, are prepared on demand and stored in the same controlled environment as the stock solutions. Intermediate microplate stored compounds are transferred to assay plates by the acoustic droplet ejection technology (ATS-100, EDC Biosystems USA) which ensures a safe, contactless, pre-dilution free delivery. The test set was transferred to 384 well, black, tissue culture treated destination plate. […]
The plate set was let to incubate with the compounds at 37° C./5% CO2 for 24 hours. […] The readout, luminescence based, was carried out by a CCD based detector (ViewLux, PerkinElmer USA). […]

[7] = test system: S. mansoni juvenile worms (4 weeks old); type: cell-based, Schistosoma mansoni; settings: 10 μM overnight, at 5 days
Procedure: as §1, with “2. Juvenile” for “1. Adult”, “(4” for “(8”
as §2
Juvenile worms (4 weeks old parasites) were also tested at the same conditions reported above. Following over night incubation of PHX (10 μM), viability of parasites was reduced by 80% after 5 days of observation (FIG. 2). […]

[8] = test system: S. mansoni juvenile worms; settings: at 8 days; previous report (Livia-Pica et al, 2004); cited from earlier work
[9] = test system: S. mansoni worms; settings: juvenile 4 weeks after infection vs adult 6 or 7 weeks, mice (Pica-Mattoccia et al., 2004); cited from earlier work
[10] = HIGH dose 70 mg/Kg oral single dose
[11] = LOW dose 23 mg/Kg oral single dose

## C1CCC(C(CC2CCCCN2)C2CCCCC2)CC1 (stereo not shown) [Perhexiline, 2-(2,2-dicyclohexylethyl)piperidine]
[1]; 3 μM
  effect on viability of adult worms: no effect
[1]; Schistosoma mansoni, read-out: reduced viability of adult worms
  inhibition at 5 µM: ~50%
[1]; overnight incubation 10 μM, after 5 days
  viability of adult parasites: statistically significant decreased viability
[2]; 3 days after treatment
  reduction in egg production: around 60%
[2]; 6 days after treatment
  reduction in egg production: around 60%
[3]; [10]
  decrease in total worm counts: 63%
  reduction of egg burden (number of eggs in the liver): 60%
[3]; [11]
  decrease in total worm counts: 35%
  reduction of egg burden (number of eggs in the liver): 50%
[4]; CYP2D6 polymorphisms
  inter-individual differences in apparent oral clearance: approximately 100 fold
[4]; most subjects
  plasma half-life: 24 to 48 h
[4]; poor metabolizers (CYP2D6)
  plasma half-life: up to 40 days
[4]; range that avoids hepatotoxicity and peripheral neuropathy (Horowitz et al 1986)
  defined therapeutic range of plasma concentration: 0.15-0.6 mg 1^−1
[5]
  rate of BODIPY FL C5-sphyngomyelin breakdown: no decrease
[6]; Schistosoma mansoni, read-out: CC50 of newly transformed schistosomula, 24 h, 0.019-50 μM, four parameter fit
  CC50: 9.56 µM
[6]; read-out: CC50 of newly transformed schistosomula, 0.019-50 μM, four parameter fit
  CC50: 12.4 µM
[6]; single concentration 10 μM, threshold 70% cytotoxicity, scaled DMSO 0% / gambogic acid 100%
  cytotoxicity in the initial screen: positive compound

## CNCCCN1c2ccccc2CCc2ccccc21 [desipramine]
[5]
  rate of BODIPY FL C5-sphyngomyelin breakdown: no decrease

## O=C(C1CCCCC1)N1CC(=O)N2CCc3ccccc3C2C1 (stereo not shown) [Praziquantel]
[7]
  survival rate of juvenile worms: 50%
[8]
  survival of juvenile worms: approximately 80%
[9]
  ED50 against juvenile worms relative to adult worms: at least 30 times

## Cl.N [NH4Cl]
[5]
  rate of BODIPY FL C5-sphyngomyelin breakdown: no decrease
